Each block holds one compound with its values, some of them ahead of it.
How the values were obtained:
[1] = system: eutopic endometrium of women with endometriosis; conditions: cited from earlier work
[2] = system: endometrial stromal fibroblasts (ESFs); assay: Regulation of steroidogenic enzymes in ESFs by cAMP and/or E2/P4, Q-PCR; type: cell-based, human
Method: ESFs were isolated from endometrial biopsies from 15 women with and 7 women without endometriosis. […] IGFBP1 and PRL protein secretion was measured by ELISA. […] Purity of ESF populations at passage 2 was evaluated by immunohistochemistry using cytokeratin, vimentin and CD45 antibodies. Endometrial tissue biopsies were obtained from mid-secretory phase endometrium from 5 women without and 5 women with severe endometriosis.

ERK = ERK 1/2 phosphorylation in cultured eutopic endometrial stromal cells; type: cell-based, human; conditions: eutopic endometrial stromal cells from patients with endometriosis; treatment within 60 min; level then similar to cells from patients without endometriosis
Source text: Growth of ectopic endometrial tissues in the pelvic cavity, which is a hallmark of endometriosis, is associated with elevated levels of inflammatory cytokines and increased number of activated macrophages in the peritoneal environment. […] In this example, the expression of inflammatory-associated genes in cultured eutopic endometrial stromal cells from women with versus without endometriosis was examined using quantitative RT-PCR. […] Interleukin-1 beta and cyclooxygenase-2 mRNA expression were similar in cultured endometrial stromal cells from women with vs. without endometriosis. Cell proliferation was similar in eutopic endometrial stromal cells from women with versus without endometriosis when cultured in 0%, 2%, or 10% charcoal stripped FBS-containing medium or in the presence of insulin. Increased IL-8 production in endometriosis is accompanied by a strong increased phosphorylation of ERK ½ (P=0.04), a signaling molecule shown to activate IL-8 expression in endometrial stromal cells. […] Since phosphorylation of ERK and IL-8 expression increases cell migration and invasion of endometrial stromal cells, dysregulation of MAPK activity and IL-8 expression in the eutopic endometrial stromal cells of women with endometriosis may be associated with the pathophysiology and spread of the disease.

[3] = system: pro-MMP-3 or pro-MMP-7 secretion; conditions: in vitro treatment of endometrial tissues from women with endometriosis; cited from earlier work
TOB1 = conditions: cultured human endometrial stromal cells from women with endometriosis; cited from earlier work

Compound: Cn1c(C#N)ccc1-c1ccc2c(c1)C(C)(C)OC(=S)N2 [tanaproget]
- progesterone insensitivity of eutopic endometrium of women with endometriosis ([1]; endometrial cell culture and nude mouse models): could be corrected

- Cyp17A1 (P450c17) expression ([2]; ESFs from women with vs without endometriosis): slightly down-regulated
- Aromatase (Cyp19A1) regulation ([2]; ESFs, cAMP effect in women with endometriosis): not regulated
- 3βHSD1 expression ([2]; P4 stimulated ESFs from women with endometriosis): Down regulation
Compound: CC(=O)[C@H]1CC[C@H]2[C@@H]3CCC4=CC(=O)CC[C@]4(C)[C@H]3CC[C@]12C [P4, progesterone]
- high basal ERK phosphorylation (ERK): successfully diminished
- suppression of pro-MMP-3 or pro-MMP-7 secretion [3]: fails to fully suppress
- prevention of the ability of tissues to establish experimental disease in mice ([1]; endometrial tissues from women with endometriosis treated in vitro): fails to prevent

Compound: IL-1β: a central cytokine in endometriosis
- TOB1 expression (TOB1): reduced TOB1 expression

— patent publication US11001892B2, “Methods of diagnosing endometriosis” (The Regents of the University of California, priority 2007, dated 2021)
